Data published in US5620997A, “Isothiazolones” (Warner-Lambert Company, priority 1995, dated 1997).
Entries after “also recorded” stand apart in the source; their conditions may differ.

Legend:
[1] = molecular target: T1, HIV-1 Nucleocapsid Protein (NCp7) (Human immunodeficiency virus type 1 group M subtype B, UniProt P12493); assay: Fluorescence-based (TSQ) assay of zinc ejection from purified HIV-1 NCp7; type: biochemical; settings: 10 μM compound, 2.8 μM NCp7, 47 μM TSQ, pH 7.4, 26° C., 90 minutes
T1 construct: The NCp7 protein containing 2 Zn-fingers and 2 Zn ions
Excerpt: The compounds of the present invention cause the extrusion of zinc from the nucleocapsid protein (NCp7) of HIV-1. The NC protein is highly conserved among all retroviruses (South T., Blake P., et al., Biochemistry, 1990;;29:7786) and is essential for viral infectivity (Aldovini A. and Young R., J. Virology, 1990;64:1920 and Gorelick R., Nigida S., et al., J. Virology, 1990;64:3207). The zinc is normally held in NC proteins by 1 or 2 zinc fingers. In the case of HIV-1, 2 zinc fingers are present (Summers M., South T., et al., Biochemistry, 1990;29:329) and are involved specifically with the PSI site on viral RNA which controls the packaging of viral RNA. Interference of this packaging causes the formation of non-infectious virions (Dannull J., Surovoy A., et al., EMBO, 1994;13:1525). It has previously been shown that compounds that cause zinc extrusion have potent anti-HIV activity in multiple cell lines and against all retroviruses (Rice W., Schaeffer C., et al., Nature, 1993;361:473).
A fluorescence-based assay has been developed to monitor the ejection of zinc from purified HIV-1 NCp7. The fluorophore, N-(6-methoxy-8-quinolyl)-p-toluenesulfonamide (TSQ), has an increased fluorescent signal upon bonding zinc ion in solution. The NCp7 protein containing 2 Zn-fingers and 2 Zn ions is incubated with drug causing the extrusion of Zn ions. The released Zn is then sequestered by the TSQ and the increased fluorescence monitored relative to control. The assay was performed as follows: 10 μM compound was added to 2.8 μM NCp7 and 47 μM TSQ in 20 μL of pH 7.4 buffer at 26° C. for 90 minutes. Fluorescence (excitation 355 nm emission 400 nm) was monitored versus time. Controls were the NCp7 under assay conditions without drug, and apo NCp7 (no Zn) with drug. The % Zn extrusion was calculated based on the actual fluorescence measured divided by the fluorescence of all theoretical Zn extruded (5.6 μM)×100.
Table 1 below presents the results of testing several of the invention compounds in zinc extrusion assay described above. The compounds were evaluated for their ability to cause the extrusion of zinc from nucleocapsid protein NCp7 (expressed as % relative to control).

NCp7 = molecular target: T2, NCp7 (Human immunodeficiency virus type 1 (NEW YORK-5 ISOLATE), UniProt P12493); assay: Electrospray ionization mass spectral analysis of NCp7 with compound; type: binding, HIV-1; settings: 40 μM NCp7, ammonium acetate buffer pH 6, 320 μM compound, 3 minutes
T2 construct: same protein as the TSQ zinc-ejection assay
Description: Electrospray ionization mass spectral analysis was also performed. Using 40 μM NCp7 in ammonium acetate buffer at pH 6, 320 μM 4-(3-oxo-3h-benzo[d]isothiazol-2-yl)benzenesulfonamide (Example 1) in acetonitrile was added. […] In addition, a peak at 6740 corresponding to the NCp7+308+Zn appeared.

[2] = CEM cell assay, toxicity (growth inhibition); type: cell-based; settings: human, cem cells; Toxic concentration which inhibits the growth of cells 50% relative to control; read-out: CEM Cell Assay TC50
Description: T4 lymphocytes (CEM cell line) are exposed to HIV at a virus to cell ratio approximately 0.05, and plated along with noninfected control cells in 96-well microliter plates. Candidate agent is dissolved in dimethyl sulfoxide (unless otherwise noted), then diluted 1:200 in cell culture medium. Further dilutions (half-log10) are prepared before adding to an equal volume of medium containing either infected or noninfected cells. Cultures are incubated at 37° in a 5% carbon dioxide atmosphere for 6 or 7 days. The tetrazolium salt, XTT, is added to all wells, and cultures are incubated to allow formazan color development by viable cells J. National Cancer Institute, 1989;81:577-586. Individual wells are analyzed spectrophotometrically to quantitate formazan production, and in addition are viewed microscopically for detection of viable cells confirmation of protective activity. Drug-tested virus-infected cells are compared with drug-treated noninfected cells and with other appropriate controls (untreated infected and untreated noninfected cells, drug-contain wells without cells, etc.) on the same plate. Data are reviewed in comparison with other tests done at the same time and a determination about activity is made.

Compound: NS(=O)(=O)c1ccc(-n2sc3ccccc3c2=O)cc1 [Example 1, 4-(3-Oxo-3h-benzo[d]isothiazol-2-yl)-benzenesulfonamide]
- % Zn Extrusion Relative to Control [1]: 100%
- Zinc extrusion and covalent adduct formation by electrospray mass spectrometry (NCp7): a mass peak at 6360 (100%) corresponding to apo NCp7 (loss of 2 Zn) appeared; also recorded: the extrusion of zinc and the formation of a covalent bond between the cysteine of the zinc finger and the isothiazolone
- CC50 [2]: 21 µM
